Data reported in patent US20240150356A1, “Pyrimidine amide compounds and use thereof” (ALPHALA CO., LTD., priority 2019, published 2024).
Read-outs that look alike come from different tables or passages of the source.

Test system: Hep3B cells (hepatocellular carcinoma cell line)
Assay: In vitro MTS cell viability assay (NCI-60 methodology), Hep3B
Format: cell-based
Settings: Homo sapiens, 48 h, 2 days drug incubation, 50% reduction vs time zero, read-out: Hep3B LC50
How it was run: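 Following NCI-60 method, MTS viability of Hep3B measured 24 h after plating (time zero) and after a further 2-day exposure to five concentrations (2-fold series). LC50 defined where [(Ti−Tz)/Tz]×100 = −50.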

O=C(Nc1nc(N2CCC(F)(F)C2)nc2c1cnn2C1CCCCC1)c1ccc([N+](=O)[O-])s1 [Compound 10-1, N-(1-cyclohexyl-6-(3,3-difluoropyrrolidin-1-yl)-1H-pyrazolo[3,4-d]pyrimidin-4-yl)-5-nitrothiophene-2-carboxamide]
LC50 (Table 10, MTS): 1250 nM

O=C(Nc1nc(-c2cccc(Cl)c2)nc2c1cnn2-c1cccc(Cl)c1)c1ccc([N+](=O)[O-])s1 [Compound 6-37, N-(1,6-bis(3-chlorophenyl)-1H-pyrazolo[3,4-d]pyrimidin-4-yl)-5-nitrothiophene-2-carboxamide]
LC50 (Table 6, MTS): 230 nM

O=C(Nc1nc(OCCN2CCOCC2)nc2c1cnn2-c1ccccc1)c1ccc([N+](=O)[O-])s1 [Compound 5-12, N-(6-(2-morpholinoethoxy)-1-phenyl-1H-pyrazolo[3,4-d]pyrimidin-4-yl)-5-nitrothiophene-2-carboxamide]
LC50 (Table 5, MTS): > 3000 nM

O=C(Nc1nc(-c2cccc(OC(F)(F)F)c2)nc2c1cnn2-c1cccc(Cl)c1)c1ccc([N+](=O)[O-])s1 [Compound 6-40, N-(1-(3-chlorophenyl)-6-(3-(trifluoromethoxy)phenyl)-1H-pyrazolo[3,4-d]pyrimidin-4-yl)-5-nitrothiophene-2-carboxamide]
LC50 (Table 6, MTS): 480 nM

Cc1csc2c(NC(=O)c3ccc([N+](=O)[O-])s3)nc(-c3cc(C(F)(F)F)ccc3F)nc12 [Compound 4-13, N-(2-(2-fluoro-5-(trifluoromethyl)phenyl)-7-methylthieno[3,2-d]pyrimidin-4-yl)-5-nitrothiophene-2-carboxamide]
LC50 (Table 4, MTS): 1700 nM

O=C(Nc1nc(N2CCC(F)(F)C2)nc2c1cnn2-c1ccc(F)cc1)c1ccc([N+](=O)[O-])s1 [Compound 6-97, N-(6-(3,3-difluoropyrrolidin-1-yl)-1-(4-fluorophenyl)-1H-pyrazolo[3,4-d]pyrimidin-4-yl)-5-nitrothiophene-2-carboxamide]
LC50 (Table 6, MTS): 570 nM

CCOCCOCCOc1ccc(-c2nc(NC(=O)c3ccc([N+](=O)[O-])s3)c3cnn(-c4ccc(C(C)(C)C)cc4)c3n2)cn1 [Compound 6-83, N-(1-(4-(ter-butyl)phenyl)-6-(6-(2-(2-ethoxyethoxy)ethoxy)pyridin-3-yl)-1H-pyrazolo[3,4-d]pyrimidin-4-yl)-5-nitrothiophene-2-carboxamide]
LC50 (Table 6, MTS): 410 nM

O=C(Nc1nc(-c2ccc(N3CCOCC3)nc2)nc2c1cnn2-c1ccc(F)cc1)c1ccc([N+](=O)[O-])s1 [Compound 6-141, N-(1-(4-fluorophenyl)-6-(6-morpholinopyridin-3-yl)-1H-pyrazolo[3,4-d]pyrimidin-4-yl)-5-nitrothiophene-2-carboxamide]
LC50 (Table 6, MTS): 420 nM

O=C(Nc1nc(-c2ccc(Cl)cc2)nc2c1cnn2C1CCN(C(=O)OCCCC(F)(F)F)CC1)c1ccc([N+](=O)[O-])s1 [Compound 9-9]
LC50 (Table 9, MTS): 1070 nM

COc1ccc(-c2nc(NC(=O)c3ccc([N+](=O)[O-])s3)c3cnn(Cc4cccc(F)c4)c3n2)cn1 [Compound 7-18]
LC50 (Table 7, MTS): > 1250 nM

O=C(Nc1nc(-c2ccc(Cl)cc2)nc2c1cnn2C1CCCC1)c1ccc([N+](=O)[O-])s1 [Compound 8-9, N-(6-(4-chlorophenyl)-1-cyclopentyl-1H-pyrazolo[3,4-d]pyrimidin-4-yl)-5-nitrothiophene-2-carboxamide]
LC50 (Table 8, MTS): 940 nM

Cn1ncc2c(NC(=O)c3ccc([N+](=O)[O-])s3)nc(-c3cccc(OC(F)(F)F)c3)nc21 [Compound 1-6, N-(1-methyl-6-(3-(trifluoromethoxy)phenyl)-1H-pyrazolo[3,4-d]pyrimidin-4-yl)-5-nitrothiophene-2-carboxamide]
LC50 (Table 1, MTS): 1470 nM

COC[C@@H]1CCCN1c1nc(NC(=O)c2ccc([N+](=O)[O-])s2)c2cnn(-c3ccc(F)cc3)c2n1 [Compound 6-103, (S)—N-(1-(4-fluorophenyl)-6-(2-(methoxymethyl)pyrrolidin-1-yl)-1H-pyrazolo[3,4-d]pyrimidin-4-yl)-5-nitrothiophene-2-carboxamide]
LC50 (Table 6, MTS): 780 nM

CCOCCOCCOC(=O)N1CCC(n2ncc3c(NC(=O)c4ccc([N+](=O)[O-])s4)nc(-c4ccc(Cl)cc4)nc32)CC1 [Compound 9-11, 2-(2-ethoxyethoxy)ethyl 4-(6-(4-chlorophenyl)-4-(5-nitrothiophene-2-carboxamido)-1H-pyrazolo[3,4-d]pyrimidin-1-yl)piperidine-1-carboxylate]
LC50 (Table 9, MTS): > 1250 nM

Cc1csc2c(NC(=O)c3ccc([N+](=O)[O-])s3)nc(-c3cc(F)c(F)c(F)c3)nc12 [Compound 4-9, N-(7-methyl-2-(3,4,5-trifluorophenyl)thieno[3,2-d]pyrimidin-4-yl)-5-nitrothiophene-2-carboxamide]
LC50 (Table 4, MTS): > 10000 nM

Cc1nn(C)c2c(NC(=O)c3ccc([N+](=O)[O-])s3)nc(-c3cccc(C(F)(F)F)c3)nc12 [Compound 3-2, N-(1,3-dimethyl-5-(3-(trifluoromethyl)phenyl)-1H-pyrazolo[4,3-d]pyrimidin-7-yl)-5-nitrothiophene-2-carboxamide]
LC50 (Table 3, MTS): 860 nM

Cc1ccc(-c2nc(NC(=O)c3ccc([N+](=O)[O-])s3)c3cnn(C4CCCCC4)c3n2)s1 [Compound 10-7, N-(1-cyclohexyl-6-(5-methylthiophen-2-yl)-1H-pyrazolo[3,4-d]pyrimidin-4-yl)-5-nitrothiophene-2-carboxamide]
LC50 (Table 10, MTS): 1530 nM

O=C(Nc1nc(-c2cccc(Cl)c2)nc2c1cnn2C1CCCCC1)c1ccc([N+](=O)[O-])s1 [Compound 10-16, N-(6-(3-chlorophenyl)-1-cyclohexyl-1H-pyrazolo[3,4-d]pyrimidin-4-yl)-5-nitrothiophene-2-carboxamide]
LC50 (Table 10, MTS): 610 nM

CC(C)(C)c1ccc(-c2nc(NC(=O)c3ccc([N+](=O)[O-])s3)c3cnn(C(C)(C)C)c3n2)cc1 [Compound 1-25, N-(1-(tert-butyl)-6-(4-(tert-butyl)phenyl)-1H-pyrazolo[3,4,d]pyrimidin-4-yl)-5-nitrothiophene-2-carboxamide]
LC50 (Table 1, MTS): 4110 nM

O=C(Nc1nc(-c2ccc(OC(F)(F)F)cc2)nc2c1cnn2-c1ccc(C(F)(F)F)cn1)c1ccc([N+](=O)[O-])s1 [Compound 7-5, 5-nitro-N-(6-(4-(trifluoromethoxy)phenyl)-1-(5-(trifluoromethyl)pyridin-2-yl)-1H-pyrazolo[3,4-d]pyrimidin-4-yl)thiophene-2-carboxamide]
LC50 (Table 7, MTS): 310 nM

CN(C)c1cccc(-c2nc(NC(=O)c3ccc([N+](=O)[O-])s3)c3cnn(-c4ccccc4)c3n2)c1 [Compound 5-41, N-(6-(3-(dimethylamino)phenyl)-1-phenyl-1H-pyrazolo[3,4-d]pyrimidin-4-yl)-5-nitrothiophene-2-carboxamide]
LC50 (Table 5, MTS): 450 nM

O=C(Nc1nc(-c2ccc(Cl)cc2)nc2c1cnn2C1CCC(F)(F)CC1)c1ccc([N+](=O)[O-])s1 [Compound 10-56, N-(6-(4-chlorophenyl)-1-(4,4-difluorocyclohexyl)-1H-pyrazolo[3,4,d]pyrimidin-4-yl)-5-nitrothiophene-2-carboxamide]
LC50 (Table 10, MTS): 770 nM

CC(C)(C)n1ncc2c(-c3ccc(OC(F)(F)F)cc3)nc(NC(=O)c3ccc([N+](=O)[O-])s3)nc21 [Compound 2-4, N-(1-(tert-butyl)-4-(4-(trifluoromethoxy)phenyl)-1H-pyrazolo[3,4,d]pyrimidin-6-yl)-5-nitrothiophene-2-carboxamide]
LC50 (Table 2, MTS): 3050 nM

Cc1noc(C)c1-c1nc(NC(=O)c2ccc([N+](=O)[O-])s2)c2cnn(C3CCCCC3)c2n1 [Compound 10-9, N-(1-cyclohexyl-4-(3,5-dimethylisoxazol-4-yl)-1H-pyrazolo[3,4,d]pyrimidin-4-yl)-5-nitrothiophene-2-carboxamide]
LC50 (Table 10, MTS): 1070 nM

CCOCCOCCOc1cc(C)c(-c2nc(NC(=O)c3ccc([N+](=O)[O-])s3)c3cnn(-c4ccc(F)cc4)c3n2)cn1 [Compound 6-139, N-(6-(6-(2-(2-ethoxyethoxy)ethoxy)-4-methylpyridin-3-yl)-1-(4-fluorophenyl)-1H-pyrazolo[3,4-d]pyrimidin-4-yl)-5-nitrothiophene-2-carboxamide]
LC50 (Table 6, MTS): 210 nM

CC(C)(C)c1ccc(-c2nc(NC(=O)c3ccc([N+](=O)[O-])s3)c3cnn(-c4ccccc4)c3n2)cc1 [Compound 5-37, N-(6-(4-(tert-butyl)phenyl)-1-phenyl-1H-pyrazolo[3,4-d]pyrimidin-4-yl)-5-nitrothiophene-2-carboxamide]
LC50 (Table 5, MTS): 780 nM

COc1ccc(-c2nc(NC(=O)c3ccc([N+](=O)[O-])s3)c3cnn(-c4ccc(C)cc4)c3n2)cn1 [Compound 6-6, N-(6-(6-methoxypyridin-3-yl)-1-(p-tolyl)-1H-pyrazolo[3,4-d]pyrimidin-4-yl)-5-nitrothiophene-2-carboxamide]
LC50 (Table 6, MTS): 400 nM

CC(C)n1ncc2c(-c3ccc(OC(F)(F)F)cc3)nc(NC(=O)c3ccc([N+](=O)[O-])s3)nc21 [Compound 2-3, N-(1-isopropyl-4-(4-(trifluoromethoxy)phenyl)-1H-pyrazolo[3,4-d]pyrimidin-6-yl)-5-nitrothiophene-2-carboxamide]
LC50 (Table 2, MTS): 4020 nM

O=C(Nc1nc(-c2ccsc2)nc2c1cnn2-c1cccc(Cl)c1)c1ccc([N+](=O)[O-])s1 [Compound 6-33, N-(1-(3-chlorophenyl)-6-(thiophen-3-yl)-1H-pyrazolo[3,4-d]pyrimidin-4-yl)-5-nitrothiophene-2-carboxamide]
LC50 (Table 6, MTS): 290 nM
